Assay results from article PMC6321014, “Effects of Toona sinensis Leaf Extract and Its Chemical Constituents on Xanthine Oxidase Activity and Serum Uric Acid Levels in Potassium Oxonate-Induced Hyperuricemic Rats” (Molecules, 2018).
Several values for one entry are separate records, joined by “and”; a condition that tells them apart may be missing. Identical values can stand only once. Entries after “also recorded” stand apart in the source; their conditions may differ. Like-named read-outs stand apart in the source and are kept apart here. Blank lines part the entries; values can stand above or below the molecule they belong to.

How the values were obtained:
[1] = molecular target: T1, xanthine oxidase (XO) enzyme (bovine milk) (Bos taurus, UniProt P80457); experiment: In vitro xanthine oxidase (XO) assay, uric acid formation at 295 nm with xanthine as substrate; assay type: biochemical; conditions: for Xanthine Oxidase Kinetic Mode: Lineweaver-Burk and Dixon plots; for inhibition at 100 µM: read-out: Xanthine Oxidase Inhibition %; for IC50: repeated three times
T1 construct: 20 µL of 0.2 unit XO enzyme (bovine milk) in buffer; from tissue; host or cells: bovine milk
T1 sequence (P80457 whole entry): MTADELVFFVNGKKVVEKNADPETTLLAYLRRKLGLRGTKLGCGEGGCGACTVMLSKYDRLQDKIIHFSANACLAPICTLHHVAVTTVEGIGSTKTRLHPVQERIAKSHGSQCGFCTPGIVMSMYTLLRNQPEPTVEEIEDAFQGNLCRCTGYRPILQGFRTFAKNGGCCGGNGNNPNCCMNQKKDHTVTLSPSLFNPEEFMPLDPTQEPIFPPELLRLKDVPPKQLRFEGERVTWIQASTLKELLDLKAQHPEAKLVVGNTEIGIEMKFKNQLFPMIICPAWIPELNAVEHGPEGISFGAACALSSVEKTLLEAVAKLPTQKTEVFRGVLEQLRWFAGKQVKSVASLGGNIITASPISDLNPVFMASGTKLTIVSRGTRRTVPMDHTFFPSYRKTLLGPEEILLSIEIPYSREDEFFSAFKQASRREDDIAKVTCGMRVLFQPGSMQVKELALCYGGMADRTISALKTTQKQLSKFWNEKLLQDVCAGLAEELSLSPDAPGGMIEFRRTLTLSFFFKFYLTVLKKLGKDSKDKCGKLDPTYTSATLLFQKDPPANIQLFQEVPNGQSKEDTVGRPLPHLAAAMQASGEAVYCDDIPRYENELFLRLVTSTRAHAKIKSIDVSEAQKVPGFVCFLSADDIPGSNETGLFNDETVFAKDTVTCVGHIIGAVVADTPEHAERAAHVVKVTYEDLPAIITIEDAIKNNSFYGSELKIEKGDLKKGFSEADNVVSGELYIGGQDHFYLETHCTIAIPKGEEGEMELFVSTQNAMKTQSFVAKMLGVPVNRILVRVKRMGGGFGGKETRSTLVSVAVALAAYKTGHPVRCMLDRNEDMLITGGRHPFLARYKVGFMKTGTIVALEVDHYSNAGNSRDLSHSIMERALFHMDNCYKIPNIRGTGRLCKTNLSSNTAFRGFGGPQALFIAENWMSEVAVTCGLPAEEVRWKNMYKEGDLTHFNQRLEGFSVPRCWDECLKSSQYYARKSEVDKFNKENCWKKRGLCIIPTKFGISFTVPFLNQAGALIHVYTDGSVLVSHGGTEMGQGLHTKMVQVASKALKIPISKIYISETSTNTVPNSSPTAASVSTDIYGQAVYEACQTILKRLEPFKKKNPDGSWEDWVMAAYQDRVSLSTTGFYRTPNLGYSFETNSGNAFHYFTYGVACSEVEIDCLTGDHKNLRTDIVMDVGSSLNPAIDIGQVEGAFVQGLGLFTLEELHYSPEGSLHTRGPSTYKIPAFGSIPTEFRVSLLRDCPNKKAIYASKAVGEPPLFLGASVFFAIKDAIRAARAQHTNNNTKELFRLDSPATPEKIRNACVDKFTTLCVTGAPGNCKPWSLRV
Protocol: We subsequently analyzed the type of inhibition using both Lineweaver–Burk (Figure 2C) and Dixon (Figure 2D) plots.
XO activity was assayed spectrophotometrically on a Spectra Max M2 microplate reader, using published experimental procedures, with slight modifications. First, 135 µL of 100 mM sodium pyrophosphate buffer (HCl, pH 7.5), 20 µL of 0.2 unit XO enzyme (bovine milk) in buffer, and 5 µL of sample (test extract or compound) in DMSO were mixed at 37 °C. The reaction was started by adding 40 µL of substrate (0.5 mM xanthine) in buffer to the mixture. The reaction mixture (200 µL) was incubated at 37 °C in a 300 µL well plate, and the UV absorbance was determined at 295 nm.

[2] = test system: potassium oxonate-induced hyperuricemic rats; experiment: Serum uric acid levels in potassium oxonate (PO)-induced hyperuricemic rats; assay type: in vivo, rat (male Sprague-Dawley); conditions: for effect on serum uric acid levels (in words): 40 mg/kg, PO-induced hyperuricemic rats
Protocol: Male Sprague–Dawley rats (7 weeks old) were purchased from Orient Bio (Seongmam, Korea) and were housed at a temperature of 22 ± 1 °C with 50 ± 10% humidity under a 12 h light/dark cycle with free access to a laboratory diet and water. The experimental design was approved by the Committee on Animal Care of the Korea Institute of Oriental Medicine, and all experiments were performed in accordance with committee guidelines. The uricase inhibitor PO was administered to induce hyperuricemia. The rats were divided into the following five groups (n = 6/group): (1) Normal control group; […] (3) PO + 300 mg/kg TSE group; […] Blood samples were collected via cardiac puncture under anesthesia 2 h after oral treatment. Serum was obtained by centrifugation of blood at 3000× g for 10 min at 4 °C. The separated serum was stored at −80 °C until analysis. Serum uric acid levels were determined by an enzymatic-colorimetric method using a commercial assay kit (Biovision, Milpitas, CA, USA) according to the manufacturer’s protocol.

[3] = molecular target: T1, xanthine oxidase (XO) enzyme (bovine milk); conditions: cited from earlier work; for XO inhibitory effect (in words): literature statement, ref 23 (Cos et al.)
[4] = isolated compounds and controls, read-out: Xanthine Oxidase IC50
[5] = sample concentration 100 µM for each compound

Compound: Oc1ncnc2[nH]ncc12 [Allopurinol, allopurinol, reference compound]
- Xanthine Oxidase Kinetic Mode [1]: Competitive
- inhibition at 100 µM [1]: > 98%
- decrease in serum uric acid level ([2]; 10 mg/kg oral gavage, positive control, rats): 43.5%

Compound: C[C@@H]1O[C@@H](OC[C@H]2O[C@@H](Oc3c(-c4ccc(O)c(O)c4)oc4cc(O)cc(O)c4c3=O)[C@H](O)[C@@H](O)[C@@H]2O)[C@H](O)[C@H](O)[C@H]1O [Compound 1, quercetin-3-O-rutinoside]
- IC50 [1, 4]: > 100 µM
- inhibition at 100 µM [1, 5]: 42.9 ± 1.4%

Compound: O=c1c(O[C@@H]2O[C@H](CO)[C@@H](O)[C@H](O)[C@H]2O)c(-c2ccc(O)c(O)c2)oc2cc(O)cc(O)c12 [Compound 2, quercetin-3-O-β-D-glucopyranoside]
- IC50 [1, 4]: > 100 µM
- inhibition at 100 µM [1, 5]: 47.8 ± 1.1%

- Ki ([1]; Dixon plots, substrate 50, 100, 200 µM, read-out: Xanthine Oxidase Ki (inhibition constant)): 3.1 µM
- Xanthine Oxidase Kinetic Mode [1]: noncompetitive inhibitor
- reversibility of XO inhibition ([1]; compound 0-12.5 μM versus XO 0-0.2 unit/mL): reversible XO inhibitor
- IC50 [1, 4]: 2.8 µM and 2.79 µM
- inhibition at 100 µM [1, 5]: 96.4 ± 0.7%
Compound: O=C(OC[C@H]1O[C@@H](OC(=O)c2cc(O)c(O)c(O)c2)[C@H](OC(=O)c2cc(O)c(O)c(O)c2)[C@@H](OC(=O)c2cc(O)c(O)c(O)c2)[C@@H]1OC(=O)c1cc(O)c(O)c(O)c1)c1cc(O)c(O)c(O)c1 [Compound 3, 1,2,3,4,6-penta-O-galloyl-β-D-glucopyranose]
- reduction in serum uric acid levels compared to the PO group ([2]; 40 mg/kg oral gavage 1 h after PO, blood 2 h after treatment, rats): 20.7%
- effect on serum uric acid levels (in words) [2]: significantly decreased serum uric acid levels; also recorded: lowered serum uric acid levels

Compound: CC1OC(Oc2c(-c3ccc(O)c(O)c3)oc3cc(O)cc(O)c3c2=O)C(O)C(O)C1O [Compound 4, quercetin-3-O-α-L-rhamnopyranoside]
- IC50 ([1]; Xanthine Oxidase IC50, isolated compounds and controls): > 100 µM
- inhibition at 100 µM [1]: 38.9 ± 1.9%
- effect on serum uric acid levels (in words) [2]: no effect

- IC50 [1, 4]: 28.4 ± 0.5 µM
- inhibition at 100 µM [1, 5]: 87.6 ± 0.9%
Compound: O=c1[nH]c(=O)c2c[nH]nc2[nH]1 [Oxypurinol, oxypurinol, reference compound]
- XO inhibitory activity compared to allopurinol (in words) ([3]; XO screening, ref 25 (Tamta et al.)): much lower inhibitory activity than allopurinol

Compound: O=c1c(O)c(-c2ccc(O)cc2)oc2cc(O)cc(O)c12 [kaempferol]
- XO inhibitory effect (in words) [3]: strong XO inhibitory effects

Compound: O=c1c(O)c(-c2ccc(O)c(O)c2)oc2cc(O)cc(O)c12 [quercetin]
- XO inhibitory effect (in words) [3]: strong XO inhibitory effects
